pIC50: −log10 of the molar value.
How the values were obtained:
Assay type in all cases: biochemical
lipase [1] = assay: lipase assay, 96-well SPA format, 'on bead'; conditions: YSi beads, 5 nM lipase, room temperature, 60 minutes, read-out: IC50 inhibition of lipase activity
Method: 96-well SPA format. Using an ‘on bead’ assay format, 180 nM lipase substrate (i.e. HSL substrate prepared by the method described in Example 1) was added to streptavidin coated yttrium silicate (YSi) beads (Amersham Pharmacia Biotech) at 5 mg/ml and 10% (v/v) Triton™ X-100 in the ratio of 1:3:2. Triton X-100 was added to prevent non-specific binding of the tritiated product to beads. Assays contained 20 μl substrate precoated SPA beads (6 nM lipase substrate, 50 μg beads, 0.67% (v/v) Triton X-100), 5 nM lipase and assay buffer (50 mM Hepes, pH 7.5, 1 mM dithioerythritol (DTE) and 0.001% (v/v) C13E12) in a volume of 100 μl. In ‘no enzyme’ controls, approximately 15000 SPA cpm were obtained. After incubation for 60 minutes at room temperature with agitation, assays were stopped by the addition of 100 μl 0.1M sodium citrate/citric acid, pH 4.0 and counted on a TopCount™ microplate scintillation counter (Packard Instruments Co., Meriden, Conn., USA).
Development of a lipase assay using a 96-well SPA assay format. Enzyme titrations were set up using ‘on’ and ‘off’ bead assay formats. In the ‘off’ bead format, the lipase substrate was not precoated onto SPA beads; instead the beads were added at the same time as the stop solution. […] It is thought that the binding of the substrate to the bead surface produced an artificial membrane environment necessary for optimal enzyme activity (FIG. 2). […]

lipase [2] = assay: lipase assay, 384-well SPA format (YSi SPA beads); conditions: 30 nM lipase, room temperature, 60 minutes, read-out: IC50 inhibition of lipase activity
Method: (§1) 384-well SPA and LEADseeker formats. 180 nM lipase substrate was added to streptavidin coated YSi beads at 10 mg/ml and 10% (v/v) Triton™ X-100 in the ratio of 2:3:1. Assays contained […] substrate precoated streptavidin YSi SPA beads or streptavidin yttrium oxide (YOx) LEADseeker beads (Amersham Pharmacia Biotech) (24 nM lipase substrate, 50 μg beads, 0.67% (v/v) Triton X-100), 30 nM lipase and assay buffer in a volume of 25 μl. In ‘no enzyme’ controls, approximately 6000 SPA cpm and 600 IOD's (Integrated Optical Density) were obtained. After incubation for 60 minutes at room temperature with agitation, assays were stopped by the addition of 25 μl 0.1M sodium citrate/citric acid, pH 4.0 and counted on either on a TopCount microplate scintillation counter (Packard Instruments Co., Meriden, Conn., USA) or imaged on LEADseeker (Amersham Pharmacia Biotech).
(§2) Miniaturization of the lipase assay to 384-well format using SPA and LEADseeker. Using a reduced assay volume an enzyme titration was performed with YSi SPA beads and YOx LEADseeker beads (FIG. 5). Different profiles were obtained using the two assay formats and this may be a result of how the substrate is presented on the surface of the two bead types.
(§3) 30 nM lipase was used and assays were incubated at room temperature for 60 minutes.

lipase [3] = assay: lipase assay, 384-well LEADseeker format (YOx LEADseeker beads); conditions: 30 nM lipase, room temperature, 60 minutes, read-out: IC50 inhibition of lipase activity
Method: as §1, §2, §3

pIC50 (lipase [1]): 4.56
pIC50 (lipase [2]): 4.49
pIC50 (lipase [3]): 4.74
Structure (SMILES): CC[C@@H](C)[C@@H](O)[C@H](C)C(=O)[C@H](C)/C=C(\C)C[C@H](C)[C@@H]1OC(=O)[C@H]1CC [Ebelactone B]

Reference: patent publication US7026135B2, “Biotin-peg-substrate for a lipase assay” (Amersham Biosciences UK Limited, priority 2000, dated 2006)
